Experimental data: patent US20030095979A1, “Pharmaceutical preparations comprising modified peptides” (Cistem Biotechnologies GMBH, priority 2001, published 2003)

Columns and labels:
Set-up in all cases: species or system mice (C57BL/6)
[1] = system: specific IFN-γ-producing T cells; assay: Example 2: mice vaccinated subcutaneously in the footpad 3 times, lymph node cells and splenocytes activated ex vivo with SIINFEKL, IFN-γ ELISpot assay; settings: in combination with 100 μg poly-L-arginine; 100 μg peptide s.c. footpad days 0, 14, 28; one week after 3rd vaccination
Procedure: Groups of 4 mice (C57BL/6, female, 6 weeks of age, II-2^b) were injected subcutaneously in the footpad 3 times (days 0, 14, 28) as follows (dose 100 ug of peptide, molarity adapted; +100 μg poly-L-arginine per mouse):
Groups of 4 mice were vaccinated subcutaneously in the footpad 3 times as indicated. One week after the 3rd vaccination, popliteal lymph nodes and spleens were removed and lymph node cells and splenocytes were activated ex vivo with peptide SIINFEKL (“245”) to determine IFN-y-producing specific cells (ELISpot assay).

[2] = system: SIINFEKL specific IFN-γ-producing T cells; assay: Example 1: mice vaccinated subcutaneously in the flank 3 times, splenocytes activated ex vivo with SIINFEKL, IFN-γ ELISpot assay; settings: for peptide specific T cells induced: without adding poly-L-arginine, 100 μg peptide s.c. flank days 0, 21, 28, spleen one week after third vaccination
Procedure: Groups of 4 mice (C75BL/6, femal, 8 weeks of age, H-2^b were injected subcutaneoulsy in the flank 3 times (days 0, 21 and 28) as follows (dose 100 μg of peptide, molarity adapted; +/−100 μg poly-L-arginine per mouse):
One week after the third vaccination spleens were removed and the splenocytes were activated ex vivo with peptide SIINFEKL (“245”) to determine IFN-y-producing specific cells (ELISpot assay).

[3] = system: SIINFEKL-specific IFN-γ-producing T cells; assay: Example 3: mice vaccinated subcutaneously in the hind footpads, spleen cells restimulated ex vivo, IFN-γ ELISpot assay; settings: in combination with 100 μg poly-L-arginine; 100 μg peptide s.c. hind footpads; spleen 7 days after vaccination
Procedure: Groups of 4 mice (C57BL/6, female, 8 weeks of age, H-2^b) were injected subcutaneously into the hind footpads as follows (dose 100 μg of peptide, molarity adapted; +100 μg poly-L-arginine per mouse):
Groups of 4 mice were vaccinated subcutaneously in the hind footpads as indicated. 7 days after the vaccination single cell suspensions of spleens were prepared and cells were restimulated ex vivo to detect IFN-γ-producing cells via ELISpot assay.

| Sequence | peptide specific T cells induced [2] | induction of SIINFEKL-specific IFN-γ-producing T cells [3] | further results |
| --- | --- | --- | --- |
| EDEDSIINFEKL [SIINFEKL with EDED added at the N-terminus] |  |  | induction of specific IFN-γ-producing T cells in the draining (popliteal) lymph node (local response) [1]: high amount; induction of specific IFN-γ-producing T cells in the spleen (systemic response) [1]: high amount |
| FIFIFISIINFEKL [SIINFEKL with FIFIFI added at the N-terminus] | about 100 per 1 million spleen cells |  |  |
| FIFISIINFEKL [SIINFEKL with FIFI added at the N-terminus] | about 100 per 1 million spleen cells | high numbers |  |
| SIINFEKL [ovalbumin derived class I H-2Kb restricted peptide, unmodified wild type, reference compound] |  |  | induction of T cells (general statement) ([2]; alone or in combination with an adjuvant like poly-L-arginine): weak inducer of T cells |
| SIINFEKLFIFI [SIINFEKL with FIFI added at the C-terminus] |  | high numbers |  |
